# Laboratory results from patent US20240245627A1, “ALKENE QUINONE COMPOUNDS AND METHODS OF USE” (University of Pittsburgh - Of the Commonwealth System of …, priority 2021, published 2024).
# Key:
# [1] = tested on: RPS/RPL gene expression in human aortic endothelial cells; experiment: RPS/RPL gene transcription in human aortic endothelial cells (RNA sequencing); assay type: cell-based; conditions: 5 μM, 6 hours
# Procedure: FIG. 9. NO2—OA and Q-NA stimulate divergent effects of RSP/RPL gene transcription in aortic endothelial cells.
# Human aortic endothelial cells were stimulated with vehicle (dimethylsulfoxide, (DMSO)), 5 μM of NO2—OA, or 5 μM Q-NA. Following 6 hours of stimulation, cells were lysed and RNA sequencing was performed.
# [2] = target: T1, Recombinant CYB5R3 (Homo sapiens, UniProt P00387); experiment: Reduction of oxidized myoglobin by recombinant CYB5R3 (NADH-initiated, absorbance); assay type: biochemical
# T1 sequence (P00387 1-301): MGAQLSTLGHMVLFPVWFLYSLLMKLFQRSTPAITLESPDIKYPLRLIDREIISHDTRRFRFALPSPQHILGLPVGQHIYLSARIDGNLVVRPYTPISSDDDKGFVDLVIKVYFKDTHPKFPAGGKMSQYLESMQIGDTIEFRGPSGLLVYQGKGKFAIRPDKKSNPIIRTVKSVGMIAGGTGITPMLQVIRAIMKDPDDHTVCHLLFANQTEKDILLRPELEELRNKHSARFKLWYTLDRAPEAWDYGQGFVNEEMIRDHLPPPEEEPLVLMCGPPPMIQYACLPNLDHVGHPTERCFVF
# Procedure: FIGS. 2a-2c. Reduction of oxidized myoglobin by CYB5R3 is not affected by (FIG. 2a) oleic acid or (FIG. 2b) Q-OA (CoQ-linked oleic acid). Q-NA enhanced (FIG. 2c) CYB5R3 reduction of myoglobin. Error bars are S.E.M. and n=3.
# Recombinant CYB5R3 was incubated with nitro-oleic acid, CoQ-linked oleic acid or Q-NA along with oxidized myoglobin. NADH stimulation initiated the reaction and absorbance changes were monitored which is indicative of myoglobin reduction. Q-NA increased myoglobin heme reduction whereas the other compounds had no effect (FIG. 2). Q-NA alone had no effect on myoglobin reduction.
Compound,RPS/RPL gene expression compared to Q-NA treatment [1],myoglobin heme reduction by CYB5R3 [2]
"9-, 10-nitro octadece-9-noic acid [NO2—OA]",opposing effects,no effect
"CCCCCCCC/C=C\CCCCCCCC(=O)O [oleic acid, octadece-9-noic acid]",,not affected
